Laboratory results reported in paper PMC9821843, “Powerful Potential of Polyfluoroalkyl-Containing 4-Arylhydrazinylidenepyrazol-3-ones for Pharmaceuticals” (Molecules, 2022).
Marks after values point to notes of the source that are not given here.

Columns and labels:
Vero cells = assay: Live cell visualization (fluorescent staining, confocal microscopy); assay type: cell-based, African green monkey; settings: 1 × 10^–4 M, laser excitation
From the text: Tartrazine, having 4-(4-sulfonatophenylazo)-5-pyrazolone moiety, is widely used as a synthetic lemon-yellow azo dye for food coloring. Many reports about the pyrazolone-based dyes for different purposes have been published to date. However, there are no reports describing 4-AHPs’ use for the biovisualization of living cells. In this work, we studied the potential of compounds 5f, 6a, 9a for the fluorescent visualization of the Vero cell structure (African green monkey kidney epithelium). Cells stained with the compound at a concentration of 1 × 10^–4 M in DMEM were examined using an LSM-710 laser scanning confocal microscope.
The suitability of substances for fluorescent imaging of cellular structures was studied on Vero cell culture (African green monkey kidney epithelium) and CHO (Chinese hamster ovary). The culture is supported in DMEM (Gibco, Uoltem, USA) with addition of 10% fetal bovine serum (Gibco, Uoltem, USA) and a mixture of gentamicin and streptomycin (Biolot, Moscow, Russia).
The cells were cultivated into specialized Petri dishes with a glass bottom for staining. Staining was carried out with substances at a concentration of 1 × 10^–4 M. For that, the solution of substances was preliminarily diluted with DMSO (Biolot, Moscow, Russia) to a concentration of 1 × 10^–3 M and then with DMEM to the required concentration. Incubation with the substance was carried out for half an hour in an incubator, in the dark at a temperature of 37 °C. […]
The stained cells with the substance were examined using an LSM-710 laser scanning confocal microscope (Carl Zeiss, Oberkochen, Germany). […] Fluorescence was excited by lasers with different wavelengths and registered in lambda mode. This mode gets to collect a full spectrum image by analyzing the intensity of fluorescence in different ranges. […] Taking images in this mode also makes it possible to obtain the fluorescence spectrum of the test substance in the cell. However, a confocal microscope is not a spectrofluorometer and the resulting spectra can have very poor quality, especially at low fluorescence intensity.

[1] = Ferric reducing antioxidant power (FRAP) assay; settings: 20 μM; n.a. = inactive
From the text: The FRAP assay measures the ability of anti-oxidants to reduce the ferric 2,4,6-tripyridyl-s-triazine complex [Fe(TPTZ)2]^3+ to the intensely blue ferrous colored complex [Fe(TPTZ)2]^2+ with an absorption maximum at λ = 593 nm. The reducing ability of a compound is an indicator of its potential anti-oxidant activity. 2,4,6-Tris(pyridin-2-yl)-1,3,5-triazine (TPTZ), FeCl3·6H2O, Trolox and DMSO were obtained from Sigma-Aldrich Chemical Co (St. Louis, MO, USA).
The ferric reducing ability of the compounds was determined by the method in microplate adapted version described in [116]. The FRAP reagent was prepared by mixing acetate buffer (0.3 M, pH 3.6), TPTZ (10 mM in 40 mM HCl) and FeCl3·6H2O (20 mM in distilled water) in a ratio of 10:1:1 immediately before use. Compounds were dissolved in DMSO and tested in the concentration 20 μM. The solvent content in the reaction mixture was 4% (v/v). The test compounds (10 μL of 0.5 mM solution) were added to the FRAP reagent solution (240 μL) and mixed thoroughly. The reaction was carried out at 37 °C in the dark; the incubation time was 1 h. The absorbance at 600 nm was monitored spectrophotometrically by a FLUOStar OPTIMA microplate reader (BMG Labtech, Ortenberg, Germany) at 37 °C. Trolox was used as a reference compound. Values were obtained from four replicates of each sample in three independent experiments.
The ferric reducing ability of compounds was expressed as TE units (antioxidant activity in Trolox equivalent), the values calculated as the ratio of the concentrations of Trolox and the test compound resulting in the same effect. The calculations were carried out using Origin 6.1 for Windows. Results were presented as mean ± SEM, calculated using GraphPad Prism version 6.05 for Windows, GraphPad Software.

Sprague-Dawley rats = assay: Carrageenan-induced paw edema model (anti-inflammatory activity); assay type: in vivo; settings: ip
Protocol: Anti-inflammatory activity was studied in Sprague-Dawley rats (3 male and 3 female animals per group) by using the common carrageenan-induced paw edema model. The investigated compounds in 1% starch mucilage were intraperitoneally administered at the corresponding dose to a treated group of rodents 30 min before the injection of 0.1 mL of freshly prepared 1% carrageenan (λ-carrageenan, type IV; Sigma Aldrich, an affiliate of Merck KGaA, Darmstadt, Germany) solution in the right hind paw plantar surface. The negative control group was treated with 1% starch mucilage solution only. Diclofenac sodium (10 mg/kg in 1% starch mucilage solution) was used as a reference drug. Paw volumes were measured oncometrically with water plethysmometer (TSE Volume Meter, Bad Homburg, Germany) before carrageenan administration (“zero time”) and at 1st, 3rd, 5th and 24th h after its injection. An anti-inflammatory activity of the sample at a certain time point was calculated in two steps. First, the percentage of an edema increment (i.e., relative volume change for the inflamed paw vs. “zero time” value) both in the negative control group (Pc) and in the treated group (Ptr) were calculated for this time point for each animal. The difference between treated and control group was considered significant at p < 0.05. Then, for such cases, swelling inhibition was calculated according to the formula: 100% (Pc − Ptr)/Pc and considered as a measure of anti-inflammatory activity of the sample.

[2] = target: porcine liver carboxylesterase (CES, EC 3.1.1.1) (Sus scrofa, UniProt Q29550); assay: Porcine liver CES inhibition kinetics (Lineweaver-Burk); assay type: biochemical; settings: mixed type inhibition; mean ± SEM
porcine liver carboxylesterase (CES, EC 3.1.1.1), sequence (Q29550 19-566): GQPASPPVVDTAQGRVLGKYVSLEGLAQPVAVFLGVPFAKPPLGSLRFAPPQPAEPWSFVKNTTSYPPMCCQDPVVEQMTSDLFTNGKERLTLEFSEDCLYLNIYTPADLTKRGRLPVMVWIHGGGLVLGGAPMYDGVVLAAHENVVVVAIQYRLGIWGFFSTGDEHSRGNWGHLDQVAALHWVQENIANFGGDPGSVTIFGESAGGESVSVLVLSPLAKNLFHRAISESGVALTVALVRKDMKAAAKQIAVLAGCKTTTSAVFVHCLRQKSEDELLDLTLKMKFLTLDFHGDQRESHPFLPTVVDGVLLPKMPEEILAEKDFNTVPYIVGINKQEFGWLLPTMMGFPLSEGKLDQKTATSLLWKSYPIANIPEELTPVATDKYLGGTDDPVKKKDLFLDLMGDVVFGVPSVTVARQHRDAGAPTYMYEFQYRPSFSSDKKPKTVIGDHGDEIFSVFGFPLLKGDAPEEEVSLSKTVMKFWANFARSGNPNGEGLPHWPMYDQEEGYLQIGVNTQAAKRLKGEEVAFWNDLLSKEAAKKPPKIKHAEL
Protocol: To elucidate the inhibition mechanisms for active compounds, porcine liver CES residual activities were determined in the presence of 3 increasing concentrations of a test compound and 5–6 decreasing concentrations of the substrates. Test compounds were incubated with the enzymes at 25 °C for 5 min, followed by the addition of substrates. A parallel control was made for an assay of the rate of hydrolysis of the same concentrations of substrates in solutions with no inhibitor. Linear regression of 1/V versus 1/[S] double-reciprocal (Lineweaver-Burk) plots was used to determine the inhibition constants for the competitive component (Ki) and noncompetitive component (αKi).
Measurements were performed in a Bio-Rad Benchmark Plus microplate reader. Each experiment was performed in triplicate. Plots, linear regressions and values of IC50, were determined using Origin 6.1 for Windows, OriginLab (Northampton, MA, USA). Results were calculated using GraphPad Prism version 6.05 for Windows, GraphPad Software (La Jolla, CA, USA) and presented as mean ± SEM.

| SMILES | acute phototoxicity during cell visualization (Vero cells) | FRAP (TE, antioxidant activity in Trolox equivalents) [1] | αKi (non-competitive inhibition constant), CES [2] [µM] | also measured |
| --- | --- | --- | --- | --- |
| Cc1ccc(N/N=C2\C(=O)NN=C2C(F)(F)C(F)(F)F)cc1 [6a, (4Z)-4-[2-(4-Methylphenyl)hydrazinylidene]-5-(pentafluoroethyl)-2,4-dihydro-3H-pyrazol-3-one] | No acute phototoxicity | 0.15 ± 0.02 | – | – |
| CS(=O)(=O)c1ccc(N/N=C2\C(=O)N(c3ccccc3)N=C2C(F)(F)F)cc1 [5m, (4Z)-4-(2-[4-(Methylsulfonyl)phenyl]hydrazinylidene)-2-phenyl-5-(trifluoromethyl)-2,4-dihydro-3H-pyrazol-3-one] | – | – | – | Inhibition of Paw Edema Development Comparing to Control, after 1 h (Sprague-Dawley rats; dose 25 mg/kg): 49.0 ** %; Inhibition of Paw Edema Development Comparing to Control, after 3 h (Sprague-Dawley rats; dose 25 mg/kg): 44.3 * %; Inhibition of Paw Edema Development Comparing to Control, after 5 h (Sprague-Dawley rats; dose 25 mg/kg): 35.3 * % |
| Cc1ccc(N/N=C2\C(=O)NN=C2C(F)(F)F)cc1 [5b, (4Z)-4-[2-(4-Methylphenyl)hydrazinylidene]-5-(trifluoromethyl)-2,4-dihydro-3H-pyrazol-3-one] | – | 0.05 ± 0.02 | – | – |
| CC1=NN(c2ccccc2)C(=O)/C1=N\Nc1ccc(C)cc1 [9b, (4Z)-5-Methyl-4-[2-(4-methylphenyl)hydrazinylidene]-2-phenyl-2,4-dihydro-3H-pyrazol-3-one] | – | 0.11 ± 0.01 | – | – |
| O=C1NN=C(C(F)(F)F)/C1=N/Nc1ccccc1 [5a, (Z)-4-(2-Phenylhydrazinylidene)-5-(trifluoromethyl)-2,4-dihydro-3H-pyrazol-3-one] | – | 0.09 ± 0.01 | 0.255 ± 0.013 | – |
| CC1=NNC(=O)/C1=N\Nc1ccc(C)cc1 [9a, (4Z)-5-Methyl-4-[2-(4-methylphenyl)hydrazinylidene]-2,4-dihydro-3H-pyrazol-3-one] | No acute phototoxicity | 0.51 ± 0.01 | – | – |
| Cc1ccc(N/N=C2\C(=O)N(c3ccccc3)N=C2C(F)(F)F)cc1 [5f, (4Z)-4-[2-(4-Methylphenyl)hydrazinylidene]-2-phenyl-5-(trifluoromethyl)-2,4-dihydro-3H-pyrazol-3-one] | No acute phototoxicity | – | 0.735 ± 0.007 | Inhibition of Paw Edema Development Comparing to Control, after 5 h (Sprague-Dawley rats; dose 15 mg/kg, n.a. = inactive): 30.9 * % |
| Cc1ccc(N/N=C2\C(=O)N(C)N=C2C(F)(F)F)cc1 [5d, (4Z)-2-Methyl-4-[2-(4-methylphenyl)hydrazinylidene]-5-(trifluoromethyl)-2,4-dihydro-3H-pyrazol-3-one] | – | – | 3.98 ± 0.31 | – |
